In paper PMC7281973, “Biological and Computational Studies for Dual Cholinesterases Inhibitory Effect of Zerumbone” (Nutrients, 2020):
Read-outs that look alike come from different tables or passages of the source.

What was measured:
BChE [1] = biological target: T1, BChE (Equus caballus, UniProt P81908); details: ref Xavier et al. 2015; cited from earlier work
[2] = tested on: oxidative stress related inflammation and cancer cell proliferation; details: cited from earlier work
BChE [3] = biological target: T1, BChE; assay: Anti-cholinesterase activity assay (modified Ellman method), BChE; format: biochemical
Protocol: (§2) AChE or BChE (0.8 U/mL) was added to a mixture which contained 0.1 M sodium phosphate buffer, 5 mM DTNB, and a tested sample, and then incubated at 37 °C for 15 min.
(§3) The cholinesterases inhibition kinetics of zerumbone were analyzed using Dixon and Lineweaver-Burk plots. The dissociation constant (Ki) was determined by interpretation of the Dixon plot, and Vmax and Km were calculated by Lineweaver–Burk plots, using the initial velocities obtained over a substrate concentration range [11].

Trypsin = assay: Enzyme selectivity assay, trypsin; format: biochemical; details: mean ± SD
Protocol: (§1) To determine enzyme selectivity, trypsin, chymotrypsin, and elastase were analyzed using […], and N-succinyl-Ala-Ala-Ala-pNA as substrates, respectively. The reaction mixture was incubated for 20 min and the absorbance was measured at 410 nm.

Chymotrypsin = biological target: T2, Chymotrypsin (Bos taurus, UniProt P00766); assay: Enzyme selectivity assay, chymotrypsin; format: biochemical; details: mean ± SD, read-out: Inhibitory activity (%) against Chymotrypsin
T2 construct: purchased Sigma-Aldrich
Protocol: as §1

Elastase = biological target: T3, Elastase (Sus scrofa, UniProt P00772); assay: Enzyme selectivity assay, elastase; format: biochemical; details: mean ± SD, read-out: Inhibitory activity (%) against Elastase
T3 construct: purchased Sigma-Aldrich
T3 sequence (P00772 27-266): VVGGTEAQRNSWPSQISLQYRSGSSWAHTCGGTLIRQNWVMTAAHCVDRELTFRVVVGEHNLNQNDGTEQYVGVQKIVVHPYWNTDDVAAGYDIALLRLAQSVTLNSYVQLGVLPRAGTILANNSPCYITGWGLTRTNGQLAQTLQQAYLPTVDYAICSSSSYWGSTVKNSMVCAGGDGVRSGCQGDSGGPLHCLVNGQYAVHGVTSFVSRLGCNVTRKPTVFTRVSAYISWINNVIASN
Protocol: as §1

BACE1 = biological target: T4, BACE1 (Homo sapiens, UniProt P56817); assay: BACE1 FRET assay; format: biochemical; details: mean ± SD, read-out: Inhibitory activity (%) against BACE1
T4 construct: purchased Thermo Fisher Scientific, Inc; host or cells: baculovirus expression system
T4 sequence (P56817 46-501): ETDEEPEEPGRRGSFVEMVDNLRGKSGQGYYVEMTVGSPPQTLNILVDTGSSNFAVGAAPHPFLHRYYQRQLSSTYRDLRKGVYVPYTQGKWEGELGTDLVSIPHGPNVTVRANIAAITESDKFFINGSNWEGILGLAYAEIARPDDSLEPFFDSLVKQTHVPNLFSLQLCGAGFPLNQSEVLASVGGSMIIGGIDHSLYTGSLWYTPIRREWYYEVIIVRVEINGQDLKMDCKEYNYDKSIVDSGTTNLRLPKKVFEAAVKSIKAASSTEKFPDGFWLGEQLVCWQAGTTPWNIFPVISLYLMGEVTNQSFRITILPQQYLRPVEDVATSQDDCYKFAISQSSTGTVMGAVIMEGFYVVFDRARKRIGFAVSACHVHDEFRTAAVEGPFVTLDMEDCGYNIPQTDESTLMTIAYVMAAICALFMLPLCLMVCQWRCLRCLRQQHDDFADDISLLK
Protocol: To evaluate BACE1 inhibitory activity, a BACE1 FRET assay kit with a recombinant baculovirus-expressed BACE1 and a Rh-[…]-Quencher substrate was used. Briefly, a mixture of BACE1 (1.0 U/mL), the substrate, and tested sample at a different concentration, was incubated for 60 min at 25 °C in well plates. The increase in fluorescence intensity was measured by a fluorescence microplate reader at excitation and emission wavelengths of 545/590 nm (FLX800, Winooski, VT, USA). The inhibitory ratio (%) was calculated using the formula: Inhibition (%) = [1 − (S − S0)/(C − C0)] × 100, where C is the absorbance of control after 60 min of incubation, C0 is the absorbance of control at time 0, S was the absorbance of samples after 60 min of incubation, and S0 was the absorbance of the samples at time 0.

AChE = AChE (Electrophorus electricus, UniProt O42275); details: Dixon and Lineweaver-Burk plots
AChE, sequence (O42275 24-633): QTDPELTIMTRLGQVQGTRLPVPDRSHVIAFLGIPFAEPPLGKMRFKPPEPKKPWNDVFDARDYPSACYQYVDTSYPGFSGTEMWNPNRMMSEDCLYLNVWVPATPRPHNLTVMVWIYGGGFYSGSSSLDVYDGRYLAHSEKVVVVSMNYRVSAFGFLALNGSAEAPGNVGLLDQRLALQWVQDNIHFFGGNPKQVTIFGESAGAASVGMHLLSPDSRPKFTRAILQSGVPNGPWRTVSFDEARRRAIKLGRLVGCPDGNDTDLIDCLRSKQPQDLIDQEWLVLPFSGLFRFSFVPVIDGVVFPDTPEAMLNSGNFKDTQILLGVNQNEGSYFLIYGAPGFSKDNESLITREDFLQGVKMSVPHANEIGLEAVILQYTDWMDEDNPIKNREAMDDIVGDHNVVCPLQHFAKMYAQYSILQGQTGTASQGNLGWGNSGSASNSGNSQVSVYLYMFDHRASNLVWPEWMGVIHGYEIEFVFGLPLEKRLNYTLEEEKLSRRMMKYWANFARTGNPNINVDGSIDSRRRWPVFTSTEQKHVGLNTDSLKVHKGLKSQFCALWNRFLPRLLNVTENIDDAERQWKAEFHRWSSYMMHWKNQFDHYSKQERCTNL
Protocol: as §2, §3

Sprague–Dawley rats = details: 1 and 10 mg/kg; cited from earlier work
transgenic APP/PS1 mice = details: 25 mg/kg; cited from earlier work
mice = details: cited from earlier work

T1 sequence (P81908 whole entry): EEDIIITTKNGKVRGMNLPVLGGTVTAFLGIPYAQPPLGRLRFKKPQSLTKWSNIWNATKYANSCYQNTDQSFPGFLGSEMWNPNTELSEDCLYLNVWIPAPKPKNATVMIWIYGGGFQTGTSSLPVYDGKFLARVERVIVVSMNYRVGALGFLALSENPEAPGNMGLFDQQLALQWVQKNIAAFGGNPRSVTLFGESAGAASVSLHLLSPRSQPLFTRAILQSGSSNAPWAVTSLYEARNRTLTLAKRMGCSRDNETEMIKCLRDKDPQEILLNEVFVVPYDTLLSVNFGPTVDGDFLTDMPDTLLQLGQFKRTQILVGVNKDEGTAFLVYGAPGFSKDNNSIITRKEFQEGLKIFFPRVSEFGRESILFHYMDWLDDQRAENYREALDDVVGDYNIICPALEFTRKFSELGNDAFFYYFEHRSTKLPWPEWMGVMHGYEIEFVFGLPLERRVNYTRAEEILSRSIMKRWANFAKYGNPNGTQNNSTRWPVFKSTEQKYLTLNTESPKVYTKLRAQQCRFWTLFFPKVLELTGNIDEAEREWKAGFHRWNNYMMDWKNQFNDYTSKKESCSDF

Question: With `COc1ccc2c3c1O[C@H]1C[C@@H](O)C=C[C@@]31CCN(C)C2` [Galantamine] as the compound, how does the “BChE Inhibition Type” value (BChE [1]) read?
Answer: Competitive ^5

Question: For `C/C1=C\CC/C(C)=C/CC(C)(C)/C=C/C1` [α-Humulene], which “Activity in oxidative stress related inflammation and cancer cell proliferation” value [2] is on record?
Answer: virtually inactive

Question: For `C/C1=C\CC(C)(C)/C=C/C(=O)/C(C)=C/CC1` [Zerumbone], which “BChE Inhibition Type” value (BChE [3]; Dixon and Lineweaver-Burk plots) is on record?
Answer: Competitive

Question: What about the “Fold more potent BChE suppression in comparison to galantamine” value (BChE [3]; versus positive control galantamine) of the same compound?
Answer: approximately 3 fold

Question: What about the “Inhibitory activity (%) against Trypsin” value (Trypsin; 50 µM) of the same compound?
Answer: 5.00 ± 1.94%

Question: What about the “Inhibitory activity (%) against Trypsin” value (Trypsin; 100 µM) of the same compound?
Answer: 3.75 ± 2.03%

Question: What about the inhibition at 50 µM (Chymotrypsin; 50 µM) of the same compound?
Answer: 3.45 ± 0.3%

Question: What about the inhibition at 100 µM (Chymotrypsin; 100 µM) of the same compound?
Answer: 2.71 ± 0.45%

Question: And the inhibition at 50 µM (Elastase; 50 µM)?
Answer: 3.46 ± 1.85%

Question: What about the inhibition at 100 µM (Elastase; 100 µM) of the same compound?
Answer: 3.57 ± 0.94%

Question: What about the inhibition at 50 µM (BACE1; 50 µM) of the same compound?
Answer: 13.3 ± 1.2%

Question: And the inhibition at 100 µM (BACE1; 100 µM)?
Answer: 16.1 ± 1.36%

Question: What about the “AChE Inhibition Type” value (AChE) of the same compound?
Answer: Non-competitive

Question: And the “Effect on cognitive impairments and memory deficits related to scopolamine” value (Sprague–Dawley rats)?
Answer: attenuated cognitive impairments and memory deficits

Question: What about the “Effect on behavioral impairments and Aβ deposition” value (transgenic APP/PS1 mice) of the same compound?
Answer: alleviated behavioral impairments and Aβ deposition

Question: What about the “Genotoxicity, organ weight, clinical chemistry, hematology, histopathology” value (mice; mouse, in vivo, ip) of the same compound?
Answer: did not cause any genotoxicity

Question: What about the “Acute toxicity in vivo” value (mice; previous in vivo studies) of the same compound?
Answer: did not produce significant acute toxicity
